Reference: patent US20050176826A1, “Use of asc-1 inhibitors to treat neurological and psychiatric disorders” (H. Lundbeck A/S, priority 2002, published 2005)

How the values were obtained:
serotonin (5-HT) uptake = target: T1, serotonin (5-HT) uptake (Rattus norvegicus, UniProt P31652); assay: [3H]serotonin uptake into rat brain synaptosomes; assay type: biochemical
T1 construct: from tissue; host or cells: synaptosomes from whole rat brain excluding cerebellum
Method: Inhibition of serotonin (5-HT), dopamine (DA) and noradrenaline (NA) uptake in vitro was measured in rat brain synaptosomes using a modification of a previously described protocol (Bøgesø et al., J Med Chem 1985, 28, 1817-1828). In brief, tritium labelled amines were used to measure uptake into synaptosomes from whole rat brain (excluding cerebellum) ([^3H]serotonin), rat striatal synaptosomes ([^3H]dopamine) or into rat cortical synaptosomes [^3H]noradrenalin. The dissected rat brain regions were homogenized in 0.40 M sucrose supplemented with 1 mM nialamid and centrifuged at 1000×g for 10 min. The supernatants were further centrifuged for 30 min at 20.000×g, 4° C. and resuspended in Krebs-Ringer buffer, pH 7.4 supplemented with 0.2 g/l ascorbic acid. Test compounds and membranes were added in 96 well plates and the incubation was started by adding either 10 nM [^3H]serotonin, 12.5 nM [^3H]dopamine or 10 nM [^3H]noradrenalin for 15 min at 37° C. except for [^3 H]dopamine uptake (5 min at 20° C.). Non-specific uptake was defined as uptake in the presence of 10 μM citalopram, 100 μM benttropin or 20 μM talsupram, respectively and accounted for 5-10% of total uptake. Samples were filtered over Whatman GF/C filters and the IC50's were estimated using non-linear regression analysis from at least 8 points dose-response curves with triplicate determinations.

human GlyT-1B = target: T2, human GlyT-1B (Homo sapiens, UniProt P48067); assay: [3H]-glycine uptake into CHO cells expressing human GlyT-1B; assay type: cell-based
T2 construct: expressed in transfected cells; host or cells: CHO cells
T2 sequence (P48067 1-652 isoform P48067-3): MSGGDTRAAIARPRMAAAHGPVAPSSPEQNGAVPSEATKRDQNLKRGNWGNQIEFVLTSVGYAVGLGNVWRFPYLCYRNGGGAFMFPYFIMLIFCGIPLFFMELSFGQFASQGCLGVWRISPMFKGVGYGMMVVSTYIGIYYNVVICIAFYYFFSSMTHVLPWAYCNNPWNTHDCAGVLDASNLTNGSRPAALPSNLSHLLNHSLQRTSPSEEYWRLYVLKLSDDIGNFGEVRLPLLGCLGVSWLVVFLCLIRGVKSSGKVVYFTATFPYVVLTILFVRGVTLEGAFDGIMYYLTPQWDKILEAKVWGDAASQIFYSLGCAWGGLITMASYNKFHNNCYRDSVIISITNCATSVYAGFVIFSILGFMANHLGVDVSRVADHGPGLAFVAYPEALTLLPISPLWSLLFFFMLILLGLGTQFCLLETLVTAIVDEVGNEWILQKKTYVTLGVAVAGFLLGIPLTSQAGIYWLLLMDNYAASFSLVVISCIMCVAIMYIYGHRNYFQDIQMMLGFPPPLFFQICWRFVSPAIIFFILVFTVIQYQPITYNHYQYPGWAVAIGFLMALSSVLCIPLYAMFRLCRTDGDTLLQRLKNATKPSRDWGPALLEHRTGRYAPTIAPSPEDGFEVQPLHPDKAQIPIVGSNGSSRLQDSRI
Method: Measurements of [^3H]-glycine uptake into CHO cells expressing human GlyT-1B were performed in 96 well plates using 1 μCi [^3H]-glycine/well. Cells were plated 2 days before the experiment and washed twice with assay buffer (composition: 150 mM NaCl, 10 mM glucose, 2.5 mM KCl, 1 mM CaCl2, 2.5 mM MgSO4, 10 mM HEPES, pH 7.4). Test compounds were added 10 min before radioligand and cells were incubated for a further 15 min at 37° C. Cells were washed as described for [3 H]-D-serine uptake into asc-1 cells. Non-specific uptake was defined as uptake in the presence of 100 μM N-methyl-N-(phenyl-trifluoromethylphenoxy)propan-1-yl-glycine.

T1 sequence (P31652 whole entry): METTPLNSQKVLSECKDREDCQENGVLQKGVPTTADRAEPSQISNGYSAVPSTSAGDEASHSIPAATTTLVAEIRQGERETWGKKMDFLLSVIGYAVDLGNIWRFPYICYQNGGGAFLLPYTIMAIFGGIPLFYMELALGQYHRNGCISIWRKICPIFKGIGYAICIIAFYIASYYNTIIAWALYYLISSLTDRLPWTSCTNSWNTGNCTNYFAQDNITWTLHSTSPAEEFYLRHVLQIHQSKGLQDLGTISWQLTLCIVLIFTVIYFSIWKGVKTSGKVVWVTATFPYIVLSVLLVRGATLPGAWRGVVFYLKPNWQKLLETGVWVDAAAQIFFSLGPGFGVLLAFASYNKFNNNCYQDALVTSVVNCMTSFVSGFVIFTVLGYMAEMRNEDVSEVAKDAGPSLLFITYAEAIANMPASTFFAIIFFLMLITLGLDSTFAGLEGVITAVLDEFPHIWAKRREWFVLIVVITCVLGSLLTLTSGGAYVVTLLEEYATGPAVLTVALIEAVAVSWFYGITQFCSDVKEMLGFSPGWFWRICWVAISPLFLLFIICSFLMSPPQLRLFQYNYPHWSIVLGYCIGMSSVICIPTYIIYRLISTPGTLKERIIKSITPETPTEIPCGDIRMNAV

**Q.** With `CSCC(N)C(=O)O` (stereo in doubt) [(S)-methyl-L-cysteine] as the molecule, how does the Ki (serotonin (5-HT) uptake) read?
**A.** > 1 mM

**Q.** What about the Ki (human GlyT-1B) of the same molecule?
**A.** > 100 µM
